# System: KRAS G12V dependent lung adenocarcinoma cell line, NCI-H441
# Experiment: Cellular pERK (Thr202/Tyr204) FRET/HTRF assay
# Format: cell-based
# Details: Homo sapiens, NCI-H441, cellular pERK HTRF, NCI-H441 (KRAS G12V) cells
# How it was run: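 NCI-H441 cells (KRAS G12V) plated overnight at 37 °C, then exposed to compounds for 1 hr at 37 °C, 5% CO2; DMSO as negative control. Lysates read by Eu-cryptate/d2 sandwich FRET (665 nm) for ERK1/2 phosphorylated at Thr202/Tyr204; IC50 from curve fit.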
row,Structure (SMILES),IC50 [µM]
1,"C#Cc1c(F)ccc2cc(N)cc(-c3ncc4c(N5CCOCC6C(Cl)C65)nc(OC[C@@]56CCCN5CC(=C)C6)nc4c3C)c12 (stereo partly drawn) [Example 443, 4-(4-(8-chloro-5-oxa-2-azabicyclo[5.1.0]octan-2-yl)-8-methyl-2-(((S)-2-methylenetetrahydro-1H-pyrrolizin-7a(5H)-yl)methoxy)pyrido[4,3-d]pyrimidin-7-yl)-5-ethynyl-6-fluoronaphthalen-2-amine]",< 0.05
2,"C#Cc1c(F)ccc2cc(N)cc(-c3ncc4c(N5CCOCC6C(Cl)C65)nc(OC[C@]56CC(=C)CN5CCC65CC5)nc4c3C)c12 (stereo partly drawn) [Example 444, 4-(4-(8-chloro-5-oxa-2-azabicyclo[5.1.0]octan-2-yl)-8-methyl-2-(((R)-6′-methylenetetrahydrospiro[cyclopropane-1,1′-pyrrolizin]-7a′(5′H)-yl)methoxy)pyrido[4,3-d]pyrimidin-7-yl)-5-ethynyl-6-fluoronaphthalen-2-amine]",< 0.05
3,"[2H]C([2H])(Oc1nc(N2CCOC[C@H]3[C@H](F)[C@H]32)c2cnc(-c3cc(O)cc4ccc(F)c(C#C)c34)c(C)c2n1)[C@@]12CCCN1C[C@H](F)C2 [Example 445, 5-Ethynyl-6-fluoro-4-(4-((1S,7S,8S)-8-fluoro-5-oxa-2-azabicyclo[5.1.0]octan-2-yl)-2-(((2R,7aS)-2-fluorotetrahydro-1H-pyrrolizin-7a(5H)-yl)methoxy-d2)-8-methylpyrido[4,3-d]pyrimidin-7-yl)naphthalen-2-ol]",< 0.05
4,"[2H]C([2H])(Oc1nc(N2CCOC[C@H]3[C@H](F)[C@H]32)c2cnc(-c3cc(O)cc4ccc(F)c(C#C)c34)c(C)c2n1)[C@@]12CCCN1CC(=C)C2 [Example 446, 5-Ethynyl-6-fluoro-4-(4-((1S,7S,8S)-8-fluoro-5-oxa-2-azabicyclo[5.1.0]octan-2-yl)-8-methyl-2-(((S)-2-methylenetetrahydro-1H-pyrrolizin-7a(5H)-yl)methoxy-d2)pyrido[4,3-d]pyrimidin-7-yl)naphthalen-2-ol]",< 0.05
5,"C#Cc1c(F)ccc2cc(O)cc(-c3ncc4c(N5CCOC[C@H]6[C@H](F)[C@H]65)nc(OC[C@@]56CCCN5C/C(=C/F)C6)nc4c3C)c12 [Example 447, 5-ethynyl-6-fluoro-4-(4-((1S,7S,8S)-8-fluoro-5-oxa-2-azabicyclo[5.1.0]octan-2-yl)-2-(((S,E)-2-(fluoromethylene)tetrahydro-1H-pyrrolizin-7a(5H)-yl)methoxy)-8-methylpyrido[4,3-d]pyrimidin-7-yl)naphthalen-2-ol]",< 0.05
6,"[2H]C([2H])(Oc1nc(N2CCOC[C@H]3[C@H](F)[C@H]32)c2cnc(-c3cc(O)cc4ccc(F)c(C#C)c34)c(C)c2n1)[C@]12CC(=C)CN1CCC21CC1 [Example 448, 5-Ethynyl-6-fluoro-4-(4-((1S,7S,8S)-8-fluoro-5-oxa-2-azabicyclo[5.1.0]octan-2-yl)-8-methyl-2-(((R)-6′-methylenetetrahydrospiro[cyclopropane-1,1′-pyrrolizin]-7a′(5′H)-yl)methoxy-d2)pyrido[4,3-d]pyrimidin-7-yl)naphthalen-2-ol]",< 0.05
7,"C#Cc1c(F)ccc2cc(O)cc(-c3ncc4c(N5CCOC[C@H]6[C@H](F)[C@H]65)nc(OC[C@]56C/C(=C/F)CN5CCC65CC5)nc4c3C)c12 [Example 449, 5-ethynyl-6-fluoro-4-(4-((1S,7S,8S)-8-fluoro-5-oxa-2-azabicyclo[5.1.0]octan-2-yl)-2-(((R,Z)-6′-(fluoromethylene)tetrahydrospiro[cyclopropane-1,1′-pyrrolizin]-7a′(5′H)-yl)methoxy)-8-methylpyrido[4,3-d]pyrimidin-7-yl)naphthalen-2-ol]",< 0.05

# Reference: patent publication US20250282799A1, “SUBSTITUTED PYRIDO[4,3-d]PYRIMIDINES AS KRAS MODULATORS” (Alterome Therapeutics, Inc., priority 2023, published 2025)
